Experimental data taken from PubChem BioAssay (NCI).
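GI50: concentration for 50% inhibition of growth. TGI: total growth inhibition.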

Tests used:
Test in all cases: growth of human tumour cells (NCI), 384-well format
[1] = test system: DU-145 prostate
[2] = test system: PC-3 prostate
[3] = test system: MDA-MB-435 melanoma
[4] = test system: NCI/ADR-RES ovarian
[5] = test system: LOX IMVI melanoma
[6] = test system: OVCAR-4 ovarian
[7] = test system: OVCAR-5 ovarian
[8] = test system: MDA-MB-231 breast
[9] = test system: NCI-H23 lung
[10] = test system: EKVX NSCLC
[11] = test system: SF-295 CNS
[12] = test system: NCI-H322M lung
[13] = test system: HT29 colon
[14] = test system: HOP-92 NSCLC
[15] = test system: MALME-3M melanoma
[16] = test system: M14 melanoma
[17] = test system: SR leukemia
[18] = test system: MDA-MB-468 breast
[19] = test system: SK-OV-3 ovarian
[20] = test system: A549 NSCLC
[21] = test system: SK-MEL-2 melanoma
[22] = test system: UO-31 renal
[23] = test system: T-47D breast
[24] = test system: HS 578T breast
[25] = test system: SF-268 CNS
[26] = test system: OVCAR-3 ovarian
[27] = test system: SNB-75 CNS
[28] = test system: SK-MEL-28 melanoma
[29] = test system: UACC-257 melanoma
[30] = test system: SW-620 colon
[31] = test system: ACHN renal
[32] = test system: SN12C renal
[33] = test system: CCRF-CEM leukemia
[34] = test system: SF-539 CNS
[35] = test system: RPMI-8226 leukemia
[36] = test system: HCC-2998 colon
[37] = test system: IGROV1 ovarian
[38] = test system: NCI-H460 NSCLC
[39] = test system: NCI-H226 lung
[40] = test system: A498 renal
[41] = test system: HCT-15 colon
[42] = test system: K-562 leukemia
[43] = test system: CAKI-1 renal
[44] = test system: SNB-19 CNS
[45] = test system: HCT-116 colon
[46] = test system: BT-549 breast
[47] = test system: MOLT-4 leukemia
[48] = test system: HOP-62 NSCLC
[49] = test system: NCI-H522 lung
[50] = test system: MCF7 breast
[51] = test system: KM12 colon
[52] = test system: 786-0 renal
[53] = test system: HL-60(TB) leukemia
[54] = test system: SK-MEL-5 melanoma
[55] = test system: TK-10 renal
[56] = test system: RXF 393 renal
[57] = test system: UACC-62 melanoma
[58] = test system: U251 glioblastoma

Question: With `CC(C)C[C@H](NC(=O)CNC(=O)c1cc(Cl)ccc1Cl)B(O)O` as the molecule, how does the GI50 [1] read?
Answer: 46.7 nM

Question: What about the TGI [1] of the same molecule?
Answer: 457 nM

Question: What about the GI50 [2] of the same molecule?
Answer: 90.8 nM

Question: And the TGI [2]?
Answer: 298 nM

Question: And the GI50 [3]?
Answer: 16 nM

Question: And the TGI [3]?
Answer: 30.2 nM

Question: And the GI50 [4]?
Answer: 235 nM

Question: What about the TGI [4] of the same molecule?
Answer: 781 nM

Question: And the GI50 [5]?
Answer: 40.6 nM

Question: And the TGI [5]?
Answer: 136 nM

Question: What about the GI50 [6] of the same molecule?
Answer: 82.1 nM

Question: What about the TGI [6] of the same molecule?
Answer: 219 nM

Question: What about the GI50 [7] of the same molecule?
Answer: 66.6 nM

Question: And the TGI [7]?
Answer: 277 nM

Question: And the GI50 [8]?
Answer: 29.3 nM

Question: What about the TGI [8] of the same molecule?
Answer: 66.1 nM

Question: And the GI50 [9]?
Answer: 22.7 nM

Question: And the TGI [9]?
Answer: 65.5 nM

Question: And the GI50 [10]?
Answer: 83 nM

Question: What about the TGI [10] of the same molecule?
Answer: 396 nM

Question: And the GI50 [11]?
Answer: 55.5 nM

Question: And the TGI [11]?
Answer: 236 nM

Question: What about the GI50 [12] of the same molecule?
Answer: 572 nM

Question: What about the TGI [12] of the same molecule?
Answer: 6500 nM

Question: And the GI50 [13]?
Answer: 19.8 nM

Question: And the TGI [13]?
Answer: 45.2 nM

Question: What about the GI50 [14] of the same molecule?
Answer: 27.5 nM

Question: And the TGI [14]?
Answer: 81.7 nM

Question: And the GI50 [15]?
Answer: 16.9 nM

Question: And the TGI [15]?
Answer: 35 nM

Question: What about the GI50 [16] of the same molecule?
Answer: 17.1 nM

Question: And the TGI [16]?
Answer: 32.4 nM

Question: And the GI50 [17]?
Answer: 11.1 nM

Question: What about the TGI [17] of the same molecule?
Answer: 23.4 nM

Question: And the GI50 [18]?
Answer: 18.9 nM

Question: And the TGI [18]?
Answer: 38.7 nM

Question: What about the GI50 [19] of the same molecule?
Answer: 184 nM

Question: What about the TGI [19] of the same molecule?
Answer: 1520 nM

Question: And the GI50 [20]?
Answer: 130 nM

Question: What about the TGI [20] of the same molecule?
Answer: 1680 nM

Question: What about the GI50 [21] of the same molecule?
Answer: 33.6 nM

Question: And the TGI [21]?
Answer: 51.3 nM

Question: And the GI50 [22]?
Answer: 26.3 nM

Question: What about the TGI [22] of the same molecule?
Answer: 66.1 nM

Question: And the GI50 [23]?
Answer: 32.9 nM

Question: What about the TGI [23] of the same molecule?
Answer: 62.8 nM

Question: And the GI50 [24]?
Answer: 20.9 nM

Question: And the TGI [24]?
Answer: 39.4 nM

Question: What about the GI50 [25] of the same molecule?
Answer: 26 nM

Question: What about the TGI [25] of the same molecule?
Answer: 60.6 nM

Question: What about the GI50 [26] of the same molecule?
Answer: 14.9 nM

Question: What about the TGI [26] of the same molecule?
Answer: 31.4 nM

Question: And the GI50 [27]?
Answer: 111 nM

Question: And the TGI [27]?
Answer: 299 nM

Question: And the GI50 [28]?
Answer: 16.6 nM

Question: And the TGI [28]?
Answer: 32 nM

Question: What about the GI50 [29] of the same molecule?
Answer: 20 nM

Question: And the TGI [29]?
Answer: 36.7 nM

Question: And the GI50 [30]?
Answer: 17.7 nM

Question: What about the TGI [30] of the same molecule?
Answer: 34 nM

Question: And the GI50 [31]?
Answer: 20.8 nM

Question: And the TGI [31]?
Answer: 71.2 nM

Question: What about the GI50 [32] of the same molecule?
Answer: 62.2 nM

Question: And the TGI [32]?
Answer: 243 nM

Question: And the GI50 [33]?
Answer: < 10 nM

Question: And the GI50 [34]?
Answer: 20.7 nM

Question: What about the TGI [34] of the same molecule?
Answer: 35.2 nM

Question: What about the GI50 [35] of the same molecule?
Answer: < 10 nM

Question: What about the GI50 [36] of the same molecule?
Answer: 30.6 nM

Question: And the TGI [36]?
Answer: 130 nM

Question: And the GI50 [37]?
Answer: 80.2 nM

Question: What about the TGI [37] of the same molecule?
Answer: 590 nM

Question: And the GI50 [38]?
Answer: 61.6 nM

Question: And the TGI [38]?
Answer: 263 nM

Question: And the GI50 [39]?
Answer: 11.1 nM

Question: What about the TGI [39] of the same molecule?
Answer: 23.6 nM

Question: And the GI50 [40]?
Answer: 71.4 nM

Question: And the TGI [40]?
Answer: 1310 nM

Question: And the GI50 [41]?
Answer: 29.2 nM

Question: What about the TGI [41] of the same molecule?
Answer: 115 nM

Question: And the GI50 [42]?
Answer: 33.8 nM

Question: What about the TGI [42] of the same molecule?
Answer: 126 nM

Question: What about the GI50 [43] of the same molecule?
Answer: 31.2 nM

Question: And the TGI [43]?
Answer: 155 nM

Question: What about the GI50 [44] of the same molecule?
Answer: 84.2 nM

Question: And the TGI [44]?
Answer: 421 nM

Question: What about the GI50 [45] of the same molecule?
Answer: 17.5 nM

Question: And the TGI [45]?
Answer: 34 nM

Question: What about the GI50 [46] of the same molecule?
Answer: 20.6 nM

Question: And the TGI [46]?
Answer: 36.3 nM

Question: And the GI50 [47]?
Answer: < 10 nM

Question: What about the TGI [47] of the same molecule?
Answer: 11.4 nM

Question: And the GI50 [48]?
Answer: 54.7 nM

Question: And the TGI [48]?
Answer: 268 nM

Question: And the GI50 [49]?
Answer: 16.5 nM

Question: What about the TGI [49] of the same molecule?
Answer: 30.9 nM

Question: And the GI50 [50]?
Answer: 34.7 nM

Question: And the TGI [50]?
Answer: 2660 nM

Question: And the GI50 [51]?
Answer: 50.7 nM

Question: What about the TGI [51] of the same molecule?
Answer: 165 nM

Question: And the GI50 [52]?
Answer: 37.7 nM

Question: What about the TGI [52] of the same molecule?
Answer: 170 nM

Question: What about the GI50 [53] of the same molecule?
Answer: 10.9 nM

Question: And the TGI [53]?
Answer: 23 nM

Question: And the GI50 [54]?
Answer: 19.7 nM

Question: What about the TGI [54] of the same molecule?
Answer: 41.7 nM

Question: And the GI50 [55]?
Answer: 20.8 nM

Question: And the TGI [55]?
Answer: 54 nM

Question: And the GI50 [56]?
Answer: 18 nM

Question: And the TGI [56]?
Answer: 33 nM

Question: What about the GI50 [57] of the same molecule?
Answer: 27.5 nM

Question: What about the TGI [57] of the same molecule?
Answer: 81.1 nM

Question: And the GI50 [58]?
Answer: 67.6 nM

Question: What about the TGI [58] of the same molecule?
Answer: 1100 nM
